Reference: patent publication US20180243298A1, “TRPV3 MODULATORS” (AbbVie Inc., priority 2015, published 2018)

Biological target: T1, human TRPV3 (Homo sapiens, UniProt Q8NET8)
T1 construct: expressed in transfected cells; host or cells: HEK293
T1 sequence (Q8NET8 1-790): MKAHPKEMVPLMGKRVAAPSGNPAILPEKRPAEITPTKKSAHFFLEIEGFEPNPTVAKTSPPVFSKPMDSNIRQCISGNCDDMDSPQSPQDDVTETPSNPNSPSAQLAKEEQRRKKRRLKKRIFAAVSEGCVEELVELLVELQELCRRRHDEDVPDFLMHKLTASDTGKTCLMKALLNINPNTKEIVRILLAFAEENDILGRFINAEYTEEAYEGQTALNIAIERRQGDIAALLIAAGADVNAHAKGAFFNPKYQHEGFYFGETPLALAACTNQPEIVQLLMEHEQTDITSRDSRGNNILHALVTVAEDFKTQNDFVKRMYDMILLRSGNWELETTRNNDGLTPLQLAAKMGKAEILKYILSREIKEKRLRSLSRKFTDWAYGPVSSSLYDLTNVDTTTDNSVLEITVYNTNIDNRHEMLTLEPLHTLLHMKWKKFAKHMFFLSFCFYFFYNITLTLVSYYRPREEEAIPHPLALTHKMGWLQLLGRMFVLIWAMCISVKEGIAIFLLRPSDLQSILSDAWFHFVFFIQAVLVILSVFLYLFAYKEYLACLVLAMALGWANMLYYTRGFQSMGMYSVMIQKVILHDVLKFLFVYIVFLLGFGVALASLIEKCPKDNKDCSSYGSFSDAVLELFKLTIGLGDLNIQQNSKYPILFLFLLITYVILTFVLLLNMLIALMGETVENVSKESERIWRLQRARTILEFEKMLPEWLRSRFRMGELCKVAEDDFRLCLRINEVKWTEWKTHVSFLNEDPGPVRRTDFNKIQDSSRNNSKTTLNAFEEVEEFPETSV
Test: Calcium flux assay (FLIPR TETRA), recombinant HEK293 cells expressing TRPV3, 2-APB response
Assay type: cell-based
Conditions: 2-APB at its EC80
Method: (i) In Vitro Methods-Calcium Flux Assays:
Experiments were conducted using the FLIPR TETRA®. On the day prior to the experiment, recombinant HEK293 cells that stably express human and mouse TRPV3 were removed from tissue culture flasks and plated in growth medium at 20,000 cells/well into black-walled clear-bottom 384-well BIOCOAT™ poly-D-lysine assay plates (BD Biosciences, Bedford, Mass.) using a MULTIDROP® dispenser (ThermoScientific, Waltham, Mass.). On the day of the experiment, growth medium was removed, and the no-wash FLIPR® Calcium-4 dye (λEX=470-495 nm, λEM=515-575 nm; Molecular Devices, Sunnyvale, Calif.) was added to each well using the MULTIDROP® dispenser. Cells were incubated for 90-120 minutes in the dark. The compounds were dissolved in DMSO to prepare a 10 mM stock solution. The intensity of the fluorescence was captured and digitally transferred to an interfaced PC. The peak increase in fluorescence over baseline, measured in relative fluorescence units, was calculated and expressed as the percentage of the maximal 2-APB (2-aminoethoxyldiphenyl borate) response (in the absence of compound). The concentration of 2-APB corresponds to its EC80.

Structure (SMILES)	IC50 [nM]
COc1ncnc(OC)c1C(=O)Nc1nc(C(F)(F)F)c(-c2ccncc2C#N)s1 [Example 24, N-[5-(3-cyanopyridin-4-yl)-4-(trifluoromethyl)-1,3-thiazol-2-yl]-4,6-dimethoxypyrimidine-5-carboxamide]	100 to 500
COc1ncnc(OC)c1C(=O)Nc1nc(C(F)(F)F)c(-c2cccc(F)c2C#N)s1 [Example 25, N-[5-(2-cyano-3-fluorophenyl)-4-(trifluoromethyl)-1,3-thiazol-2-yl]-4,6-dimethoxypyrimidine-5-carboxamide]	< 50
CCc1sc(NC(=O)c2c(OC)ncnc2OC)nc1-c1ccccc1 [Example 26, N-(5-ethyl-4-phenyl-1,3-thiazol-2-yl)-4,6-dimethoxypyrimidine-5-carboxamide]	50 to 100
COc1ncnc(OC)c1C(=O)Nc1nc(C(F)(F)F)c(-c2cnccn2)s1 [Example 28, 4,6-dimethoxy-N-[5-(pyrazin-2-yl)-4-(trifluoromethyl)-1,3-thiazol-2-yl]pyrimidine-5-carboxamide]	500 to 1000
COc1ncnc(OC)c1C(=O)Nc1nc(C(F)(F)F)c(-c2cnc(N3CCOCC3)cn2)s1 [Example 29, 4,6-dimethoxy-N-{5-[5-(morpholin-4-yl)pyrazin-2-yl]-4-(trifluoromethyl)-1,3-thiazol-2-yl}pyrimidine-5-carboxamide]	500 to 1000
COc1ncnc(OC)c1C(=O)Nc1nc(C(F)(F)F)c(-c2cccc(C(F)(F)F)n2)s1 [Example 30, 4,6-dimethoxy-N-{4-(trifluoromethyl)-5-[6-(trifluoromethyl)pyridin-2-yl]-1,3-thiazol-2-yl}pyrimidine-5-carboxamide]	< 50
COc1ncnc(OC)c1C(=O)Nc1nc(C(F)(F)F)c(N2CCOCC2)s1 [Example 32, 4,6-dimethoxy-N-[5-(morpholin-4-yl)-4-(trifluoromethyl)-1,3-thiazol-2-yl]pyrimidine-5-carboxamide]	100 to 500
CCCc1sc(NC(=O)c2c(OC)ncnc2OC)nc1C(F)(F)F [Example 34, 4,6-dimethoxy-N-[5-propyl-4-(trifluoromethyl)-1,3-thiazol-2-yl]pyrimidine-5-carboxamide]	< 50
COc1ncnc(OC)c1C(=O)Nc1nc(C(F)(F)F)c(C2COC(C)(C)O2)s1 (centres unmarked) [Example 35, N-[5-(2,2-dimethyl-1,3-dioxolan-4-yl)-4-(trifluoromethyl)-1,3-thiazol-2-yl]-4,6-dimethoxypyrimidine-5-carboxamide]	100 to 500
COc1ncnc(OC)c1C(=O)Nc1nc(C(F)(F)F)c(-c2cnc(N3CCOCC3)nc2)s1 [Example 36, 4,6-dimethoxy-N-{5-[2-(morpholin-4-yl)pyrimidin-5-yl]-4-(trifluoromethyl)-1,3-thiazol-2-yl}pyrimidine-5-carboxamide]	50 to 100
COc1ncnc(OC)c1C(=O)Nc1nc(C(F)(F)F)c(C2CC2)s1 [Example 37, N-[5-cyclopropyl-4-(trifluoromethyl)-1,3-thiazol-2-yl]-4,6-dimethoxypyrimidine-5-carboxamide]	< 50
COc1ncnc(OC)c1C(=O)Nc1nc(C(F)(F)F)c(C2=CCOCC2)s1 [Example 38, N-[5-(3,6-dihydro-2H-pyran-4-yl)-4-(trifluoromethyl)-1,3-thiazol-2-yl]-4,6-dimethoxypyrimidine-5-carboxamide]	< 50
COc1ncnc(OC)c1C(=O)Nc1nc(C(F)(F)F)c(C2CCOCC2)s1 [Example 39, 4,6-dimethoxy-N-[5-(tetrahydro-2H-pyran-4-yl)-4-(trifluoromethyl)-1,3-thiazol-2-yl]pyrimidine-5-carboxamide]	50 to 100
COc1cc(C#N)ccc1-c1sc(NC(=O)c2c(OC)ncnc2OC)nc1C(F)(F)F [Example 43, N-[5-(4-cyano-2-methoxyphenyl)-4-(trifluoromethyl)-1,3-thiazol-2-yl]-4,6-dimethoxypyrimidine-5-carboxamide]	< 50

Continued, values first:

IC50 [nM]	Structure (SMILES)
100 to 500	COc1ncnc(OC)c1C(=O)Nc1nc(C(F)(F)F)c(-c2c[nH]c3cc(C#N)ccc23)s1 [Example 44, N-[5-(6-cyano-1H-indol-3-yl)-4-(trifluoromethyl)-1,3-thiazol-2-yl]-4,6-dimethoxypyrimidine-5-carboxamide]
100 to 500	COc1ncnc(OC)c1C(=O)Nc1nc(C(F)(F)F)c(-c2ccccn2)s1 [Example 45, 4,6-dimethoxy-N-[5-(pyridin-2-yl)-4-(trifluoromethyl)-1,3-thiazol-2-yl]pyrimidine-5-carboxamide]
< 50	COc1ncnc(OC)c1C(=O)Nc1nc(C(F)(F)F)c(-c2ccc(Cl)cn2)s1 [Example 46, N-[5-(5-chloropyridin-2-yl)-4-(trifluoromethyl)-1,3-thiazol-2-yl]-4,6-dimethoxypyrimidine-5-carboxamide]
> 1000	COc1ncnc(OC)c1C(=O)Nc1nc(C(F)(F)F)c(C=O)s1 [Example 47, N-[5-formyl-4-(trifluoromethyl)-1,3-thiazol-2-yl]-4,6-dimethoxypyrimidine-5-carboxamide]
500 to 1000	COc1ncnc(OC)c1C(=O)Nc1nc(C(F)(F)F)c(CN2CCCC2)s1 [Example 49, 4,6-dimethoxy-N-[5-(pyrrolidin-1-ylmethyl)-4-(trifluoromethyl)-1,3-thiazol-2-yl]pyrimidine-5-carboxamide]
> 1000	COc1ncnc(OC)c1C(=O)Nc1nc(C(F)(F)F)c(CN2CCOCC2)s1 [Example 50, 4,6-dimethoxy-N-[5-(morpholin-4-ylmethyl)-4-(trifluoromethyl)-1,3-thiazol-2-yl]pyrimidine-5-carboxamide]
100 to 500	COc1ncnc(OC)c1C(=O)Nc1nc(C(F)(F)F)c(CNC2CCCC2)s1 [Example 51, N-{5-[(cyclopentylamino)methyl]-4-(trifluoromethyl)-1,3-thiazol-2-yl}-4,6-dimethoxypyrimidine-5-carboxamide]
< 50	COc1ncnc(OC)c1C(=O)Nc1nc(C(F)(F)F)c(CN(C)CC(C)C)s1 [Example 54, 4,6-dimethoxy-N-[5-{[methyl(2-methylpropyl)amino]methyl}-4-(trifluoromethyl)-1,3-thiazol-2-yl]pyrimidine-5-carboxamide]
100 to 500	COc1ncnc(OC)c1C(=O)Nc1nc(C(F)(F)F)c(CN(C)C(C)(C)C)s1 [Example 55, N-[5-{[tert-butyl(methyl)amino]methyl}-4-(trifluoromethyl)-1,3-thiazol-2-yl]-4,6-dimethoxypyrimidine-5-carboxamide]
> 1000	COc1ncnc(OC)c1C(=O)Nc1nc(C(F)(F)F)c(CNC(C)(C)C)s1 [Example 56, N-{5-[(tert-butylamino)methyl]-4-(trifluoromethyl)-1,3-thiazol-2-yl}-4,6-dimethoxypyrimidine-5-carboxamide]
100 to 500	COc1ncnc(OC)c1C(=O)Nc1nc(C(F)(F)F)c(CN2CC[C@H](F)C2)s1 [Example 57, N-[5-{[(3 S)-3-fluoropyrrolidin-1-yl]methyl}-4-(trifluoromethyl)-1,3-thiazol-2-yl]-4,6-dimethoxypyrimidine-5-carboxamide]
500 to 1000	COc1ncnc(OC)c1C(=O)Nc1nc(C(F)(F)F)c(CN2CC[C@H](OC)C2)s1 [Example 59, 4,6-dimethoxy-N-[5-{[(3S)-3-methoxypyrrolidin-1-yl]methyl}-4-(trifluoromethyl)-1,3-thiazol-2-yl]pyrimidine-5-carboxamide]
500 to 1000	COc1ncnc(OC)c1C(=O)Nc1nc(C(F)(F)F)c(CN2CC[C@@H](OC)C2)s1 [Example 60, 4,6-dimethoxy-N-[5-{[(3R)-3-methoxypyrrolidin-1-yl]methyl}-4-(trifluoromethyl)-1,3-thiazol-2-yl]pyrimidine-5-carboxamide]
100 to 500	COc1ncnc(OC)c1C(=O)Nc1nc(C(F)(F)F)c(CN2CCC3(CC2)COC3)s1 [Example 61, 4,6-dimethoxy-N-[5-(2-oxa-7-azaspiro[3.5]non-7-ylmethyl)-4-(trifluoromethyl)-1,3-thiazol-2-yl]pyrimidine-5-carboxamide]
50 to 100	COc1ncnc(OC)c1C(=O)Nc1nc(C(F)(F)F)c(CN2CCCC3(COC3)C2)s1 [Example 62, 4,6-dimethoxy-N-[5-(2-oxa-6-azaspiro[3.5]non-6-ylmethyl)-4-(trifluoromethyl)-1,3-thiazol-2-yl]pyrimidine-5-carboxamide]
